Laboratory results: ChEMBL document CHEMBL2073776, “Interaction of structurally diverse pesticides with the human MDR1 gene product P-glycoprotein” (Toxicol Appl Pharmacol, 1996)

Assays:
Format in all cases: functional, cell-based
[1] = molecular target: T1, MDR1 (ABCB1, ATP-dependent translocase) (Homo sapiens, UniProt P08183); experiment: TP_TRANSPORTER: inhibition of Doxorubicin efflux (Doxorubicin: 50 uM, Heptachlor: 250 uM) in MDR1-expressing B16/F10 cells; conditions: mouse, probe Doxorubicin
T1 sequence (P08183 whole entry): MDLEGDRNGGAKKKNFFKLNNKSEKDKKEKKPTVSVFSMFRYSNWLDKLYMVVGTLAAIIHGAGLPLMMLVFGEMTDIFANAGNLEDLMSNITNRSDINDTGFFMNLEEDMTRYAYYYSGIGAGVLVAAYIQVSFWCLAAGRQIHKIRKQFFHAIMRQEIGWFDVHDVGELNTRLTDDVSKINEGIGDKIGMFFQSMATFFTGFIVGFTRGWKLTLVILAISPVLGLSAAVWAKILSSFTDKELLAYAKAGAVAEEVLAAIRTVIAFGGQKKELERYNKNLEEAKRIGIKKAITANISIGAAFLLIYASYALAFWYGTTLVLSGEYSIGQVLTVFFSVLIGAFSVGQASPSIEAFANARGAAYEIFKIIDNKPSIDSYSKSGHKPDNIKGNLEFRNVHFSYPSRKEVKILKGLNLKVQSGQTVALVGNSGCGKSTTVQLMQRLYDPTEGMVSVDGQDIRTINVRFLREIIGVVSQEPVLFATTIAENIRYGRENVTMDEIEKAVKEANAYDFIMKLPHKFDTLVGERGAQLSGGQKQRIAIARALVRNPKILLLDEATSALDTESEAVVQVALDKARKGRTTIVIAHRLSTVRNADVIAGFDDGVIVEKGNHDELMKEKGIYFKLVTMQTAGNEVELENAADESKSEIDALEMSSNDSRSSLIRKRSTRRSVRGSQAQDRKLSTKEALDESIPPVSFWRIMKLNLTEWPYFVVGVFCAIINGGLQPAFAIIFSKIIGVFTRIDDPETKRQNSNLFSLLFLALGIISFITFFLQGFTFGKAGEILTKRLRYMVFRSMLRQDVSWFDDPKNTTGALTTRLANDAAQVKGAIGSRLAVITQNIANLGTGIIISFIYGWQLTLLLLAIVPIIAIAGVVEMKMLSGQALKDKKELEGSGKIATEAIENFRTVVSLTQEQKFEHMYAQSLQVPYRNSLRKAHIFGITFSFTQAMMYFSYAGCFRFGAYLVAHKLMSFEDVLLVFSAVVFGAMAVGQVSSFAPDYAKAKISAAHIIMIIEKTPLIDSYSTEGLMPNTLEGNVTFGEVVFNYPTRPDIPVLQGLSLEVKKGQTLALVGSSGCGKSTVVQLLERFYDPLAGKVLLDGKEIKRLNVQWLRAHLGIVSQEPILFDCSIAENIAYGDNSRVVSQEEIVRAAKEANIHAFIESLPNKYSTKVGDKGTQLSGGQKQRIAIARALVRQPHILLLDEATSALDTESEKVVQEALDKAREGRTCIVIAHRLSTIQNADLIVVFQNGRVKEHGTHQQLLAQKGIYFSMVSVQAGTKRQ

[2] = molecular target: T2, ATP-dependent translocase ABCB1 (Homo sapiens, UniProt P08183); experiment: TP_TRANSPORTER: inhibition of Doxorubicin efflux (Doxorubicin: 50 uM, […]: 250 uM) in MDR1-expressing B16/F10 cells; conditions: mouse, b16-f10, 250 µM
T2 sequence (P08183 whole entry): as above

[3] = molecular target: T1, MDR1 (ABCB1, ATP-dependent translocase); experiment: TP_TRANSPORTER: inhibition of Doxorubicin efflux (Doxorubicin: 50 uM, Parathion: 250 uM) in MDR1-expressing B16/F10 cells; conditions: mouse, probe Doxorubicin
[4] = molecular target: T1, MDR1 (ABCB1, ATP-dependent translocase); experiment: TP_TRANSPORTER: inhibition of Doxorubicin efflux (Doxorubicin: 50 uM, Dicapthon: 250 uM) in MDR1-expressing B16/F10 cells; conditions: mouse, probe Doxorubicin
[5] = molecular target: T1, MDR1 (ABCB1, ATP-dependent translocase); experiment: TP_TRANSPORTER: inhibition of Doxorubicin efflux (Doxorubicin: 50 uM, Endosulfan: 100 uM) in MDR1-expressing B16/F10 cells; conditions: mouse, probe Doxorubicin
[6] = molecular target: T2, ATP-dependent translocase ABCB1; experiment: TP_TRANSPORTER: efflux in MDR1-expressing B16/F10 cells; conditions: mouse
[7] = molecular target: T2, ATP-dependent translocase ABCB1; experiment: TP_TRANSPORTER: inhibition of Doxorubicin efflux (Doxorubicin: 50 uM, Chlorpyrifos: 250 uM) in MDR1-expressing B16/F10 cells; conditions: mouse, b16-f10, 250 µM
[8] = molecular target: T2, ATP-dependent translocase ABCB1; experiment: TP_TRANSPORTER: inhibition of Doxorubicin efflux (Doxorubicin: 50 uM, Clotrimazole: 100 uM) in MDR1-expressing B16/F10 cells; conditions: mouse, b16-f10, 100 µM
[9] = molecular target: T2, ATP-dependent translocase ABCB1; experiment: TP_TRANSPORTER: inhibition of Doxorubicin efflux (Doxorubicin: 50 uM, Fluvalinate: 250 uM) in MDR1-expressing B16/F10 cells; conditions: mouse, b16-f10, 250 µM
[10] = molecular target: T2, ATP-dependent translocase ABCB1; experiment: TP_TRANSPORTER: inhibition of Doxorubicin efflux (Doxorubicin: 50 uM, Phenamiphos: 250 uM) in MDR1-expressing B16/F10 cells; conditions: mouse, b16-f10, 250 µM
[11] = molecular target: T1, MDR1 (ABCB1, ATP-dependent translocase); experiment: TP_TRANSPORTER: inhibition of Doxorubicin efflux (Doxorubicin: 50 uM, Heptachlor epoxide: 250 uM) in MDR1-expressing B16/F10 cells; conditions: mouse, probe Doxorubicin
[12] = molecular target: T2, ATP-dependent translocase ABCB1; experiment: TP_TRANSPORTER: inhibition of Doxorubicin efflux (Doxorubicin: 50 uM, Chlorthiophos: 250 uM) in MDR1-expressing B16/F10 cells; conditions: mouse, b16-f10, 250 µM
[13] = molecular target: T1, MDR1 (ABCB1, ATP-dependent translocase); experiment: TP_TRANSPORTER: inhibition of Doxorubicin efflux (Doxorubicin: 50 uM, Tetrachlorohydroquinone: 250 uM) in MDR1-expressing B16/F10 cells; conditions: mouse, probe Doxorubicin
[14] = molecular target: T1, MDR1 (ABCB1, ATP-dependent translocase); experiment: TP_TRANSPORTER: inhibition of Doxorubicin efflux (Doxorubicin: 50 uM, Chlordecone: 250 uM) in MDR1-expressing B16/F10 cells; conditions: mouse, probe Doxorubicin
[15] = molecular target: T1, MDR1 (ABCB1, ATP-dependent translocase); experiment: TP_TRANSPORTER: inhibition of Doxorubicin efflux (Doxorubicin: 50 uM, Hydramethylnon: 8 uM) in MDR1-expressing B16/F10 cells; conditions: mouse, probe Doxorubicin

**Q.** How did the inhibition at 250 µM [1] turn out when `ClC1=C(Cl)C2(Cl)C3C(Cl)C=CC3C1(Cl)C2(Cl)Cl` (stereo not given) [HEPTACHLOR] was run?
**A.** > 80%

**Q.** With `COP(=S)(Oc1cc(Cl)c(Br)cc1Cl)c1ccccc1` (stereo not given) [LEPTOPHOS] as the molecule, how does the Inhibition [2] read?
**A.** inhibitor [51-80 % inhibition]

**Q.** Which inhibition at 250 µM [3] does the source give for `CCOP(=S)(OCC)Oc1ccc([N+](=O)[O-])cc1` [PARATHION] here?
**A.** > 80%

**Q.** For `COP(=S)(OC)Oc1ccc([N+](=O)[O-])cc1Cl` [DICAPTHON], which inhibition at 250 µM [4] is on record?
**A.** > 80%

**Q.** How did the inhibition at 100 µM [5] turn out when `O=S1OCC2C(CO1)C1(Cl)C(Cl)=C(Cl)C2(Cl)C1(Cl)Cl` (stereo not given) [ENDOSULFAN] was run?
**A.** > 80%

**Q.** And the Activity [6]?
**A.** substrate [+]

**Q.** Which Inhibition [7] does the source give for `CCOP(=S)(OCC)Oc1nc(Cl)c(Cl)cc1Cl` [CHLORPYRIFOS] here?
**A.** inhibitor [51-80 % inhibition]

**Q.** `Clc1ccccc1C(c1ccccc1)(c1ccccc1)n1ccnc1` [CLOTRIMAZOLE] was tested. Which Inhibition [8] did it give?
**A.** inhibitor [51-80 % inhibition]

**Q.** How did the Inhibition [9] turn out when `CC(C)[C@H](Nc1ccc(C(F)(F)F)cc1Cl)C(=O)OC(C#N)c1cccc(Oc2ccccc2)c1` (stereo not given in full) [FLUVALINATE] was run?
**A.** inhibitor [31-50 % inhibition]

**Q.** How did the Inhibition [10] turn out when `CCOP(=O)(NC(C)C)Oc1ccc(SC)c(C)c1` (stereo not given) [PHENAMIPHOS] was run?
**A.** inhibitor [51-80 % inhibition]

**Q.** For `ClC1=C(Cl)C2(Cl)C3C4OC4C(Cl)C3C1(Cl)C2(Cl)Cl` (stereo not given) [HEPTACHLOR EPOXIDE], which inhibition at 250 µM [11] is on record?
**A.** > 80%

**Q.** For `CCOP(=S)(OCC)Oc1cc(Cl)c(SC)cc1Cl` [CHLORTHIOPHOS], which Inhibition [12] is on record?
**A.** inhibitor [51-80 % inhibition]

**Q.** With `Oc1c(Cl)c(Cl)c(O)c(Cl)c1Cl` [TETRACHLOROHYDROQUINONE] as the molecule, how does the inhibition at 250 µM [13] read?
**A.** > 80%

**Q.** For `O=C1C2(Cl)C3(Cl)C4(Cl)C(Cl)(Cl)C5(Cl)C3(Cl)C1(Cl)C5(Cl)C24Cl` (stereo not given) [KEPONE], which inhibition at 250 µM [14] is on record?
**A.** > 80%

**Q.** For `CC1(C)CNC(=NN=C(/C=C/c2ccc(C(F)(F)F)cc2)/C=C/c2ccc(C(F)(F)F)cc2)NC1` [HYDRAMETHYLNON], which inhibition at 8 µM [15] is on record?
**A.** > 80%
